Experimental data: patent US5011849A, “Compounds for treating and preventing cognitive diseases and depression and methods of making same” (Hoffmann-La Roche Inc., priority 1988, dated 1991)

Assays:
[1] = target: T1, MAO (substrate 5-HT) (Rattus norvegicus, UniProt P21396); experiment: in vitro MAO inhibition in rat brain homogenate, substrate 14C-serotonin (5-HT); assay type: biochemical; details: substrate 14C-serotonin (5-HT) 2.10^-4 Mol/l, pH 7.4, 37° C., preincubation 30 minutes, incubation 10 minutes, read-out: IC 50, 5-HT
T1 construct: 20 μl of rat brain homogenate; from tissue; host or cells: rat brain homogenate
T1 sequence (P21396 1-526): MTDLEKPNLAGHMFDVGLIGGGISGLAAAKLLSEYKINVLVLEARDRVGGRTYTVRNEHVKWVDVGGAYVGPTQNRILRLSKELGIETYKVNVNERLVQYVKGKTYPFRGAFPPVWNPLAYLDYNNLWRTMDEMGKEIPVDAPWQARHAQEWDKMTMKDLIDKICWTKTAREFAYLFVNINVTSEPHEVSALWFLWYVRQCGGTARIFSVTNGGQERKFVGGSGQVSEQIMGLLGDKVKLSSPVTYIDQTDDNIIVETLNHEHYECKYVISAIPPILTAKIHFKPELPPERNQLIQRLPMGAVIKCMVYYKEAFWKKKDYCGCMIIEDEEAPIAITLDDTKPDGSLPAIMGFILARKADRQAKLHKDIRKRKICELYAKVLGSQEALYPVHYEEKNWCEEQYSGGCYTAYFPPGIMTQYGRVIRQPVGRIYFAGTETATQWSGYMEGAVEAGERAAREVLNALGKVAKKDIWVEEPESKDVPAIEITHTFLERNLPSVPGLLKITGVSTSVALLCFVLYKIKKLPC
Experimental: (§1) The MAO inhibiting activity of the compounds in accordance with the invention can be determined using standard methods. Thus, the preparations to be tested were subjected to the in vitro test described hereinafter, which followed the method published by R. J. Wurtmann and J. A. Axelrod [Biochem. Pharmac. 12, 1439-1441 (1963)].
(§2) Isolated rat brains are homogenized in the ratio 1:4 (weight/volume) in 0.1 molar potassium phosphate buffer (pH 7.4). whereupon the homogenates are diluted in the ratio 1:4 (volume/volume) with the same buffer and stored at -20°. A mixture of the following composition is used for the incubation:
(§3) 100 μl of 1M phosphate buffer (pH 7.4);
(§4) 100 μl solubilizate of the substance to be tested in water or dimethyl sulfoxide;
(§5) 20 μl of rat brain homogenate; and as the substrate
(§6) 80 μl of ^14 C-serotonin (5-HT) or ^14 C-phenylethylamine (PEA), in each case 100,000 decays per minute, corresponding to a final concentration of 2.10^-4 Mol/l and, respectively, 2.10^-5 Mol/l.
(§7) Prior to the addition of the substrate a preincubation at 37° C. was effected for 30 minutes. The incubation (in the presence of the substrate) was also effected at 37° C. and lasted 10 minutes.
(§8) The reaction is stopped by the addition of 200 μl of 2N hydrochloric acid.
(§9) The deaminated product, depending on the use of 5-HT or of PEA as the substrate, is extracted by shaking for 10 minutes with 5 ml of diethyl ether or with 5 ml of n-heptane, whereupon the mixture is centrifuged, the aqueous phase is frozen in a dry-ice bath and the organic phase is poured into a counting glass.
(§10) The activity of the MAO in comparison to control homogenates (without substance to be tested) is determined on the basis of the β-counter value and the IC 50 is defined as that concentration of a substance to be tested which decreases the activity of the MAO in the substrate 5-HT or PEA to 50%.

[2] = target: T2, MAO (substrate PEA) (Rattus norvegicus, UniProt P19643); experiment: in vitro MAO inhibition in rat brain homogenate, substrate 14C-phenylethylamine (PEA); assay type: biochemical; details: substrate 14C-phenylethylamine (PEA) 2.10^-5 Mol/l, pH 7.4, 37° C., preincubation 30 minutes, incubation 10 minutes
T2 construct: 20 μl of rat brain homogenate; from tissue; host or cells: rat brain homogenate
T2 sequence (P19643 1-520): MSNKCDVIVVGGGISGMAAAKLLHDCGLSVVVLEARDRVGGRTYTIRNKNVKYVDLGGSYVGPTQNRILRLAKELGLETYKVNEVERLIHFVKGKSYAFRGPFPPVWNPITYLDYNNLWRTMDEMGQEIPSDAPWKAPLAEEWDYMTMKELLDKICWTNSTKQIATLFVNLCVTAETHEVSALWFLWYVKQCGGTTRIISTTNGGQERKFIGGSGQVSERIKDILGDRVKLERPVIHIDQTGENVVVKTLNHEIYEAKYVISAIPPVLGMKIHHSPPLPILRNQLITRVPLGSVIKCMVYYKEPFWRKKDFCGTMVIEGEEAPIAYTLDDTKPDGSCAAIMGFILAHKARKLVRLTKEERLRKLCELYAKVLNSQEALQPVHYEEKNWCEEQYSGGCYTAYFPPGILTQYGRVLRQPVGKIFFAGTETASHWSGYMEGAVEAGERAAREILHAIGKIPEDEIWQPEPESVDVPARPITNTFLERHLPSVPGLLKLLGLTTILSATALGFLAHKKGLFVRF
Experimental: as §1, §2, §3, §4, §5, §6, §7, §8, §9, §10

Structure (SMILES) | IC50 [1] [nM] | IC50 [2] [nM]
NCCNC(=O)c1ncsc1-c1ccc(F)cc1F [5-(2,4-difluorophenyl)-4-thiazol, N-(2-aminoethyl)-5-(2,4-difluorophenyl)-4-thiazolecarboxamide] | 120 | 3600
NCCNC(=O)c1ncsc1-c1cc(Cl)cc(Cl)c1 [5-(3,5-dichlorophenyl)-4-thiazol, N-(2-aminoethyl)-5-(3,5-dichlorophenyl)-4-thiazolecarboxamide] | 7 | 300
NCCNC(=O)c1ncsc1-c1cccc(F)c1 [5-(3-fluorophenyl)-4-thiazol, N-(2-aminoethyl)-5-(3-fluorophenyl)-4-thiazolecarboxamide] | 20 | > 10000
NCCNC(=O)c1ncoc1-c1ccco1 [5-(2-furyl)-4-oxazol, N-(2-aminoethyl)-5-(2-furyl)-4-oxazolecarboxamide] | 22 | 2000
NCCNC(=O)c1ncsc1-c1ccc(F)cc1 [5-(4-fluorophenyl)-4-thiazol, N-(2-aminoethyl)-5-(4-fluorophenyl)-4-thiazolecarboxamide] | 60 | 100000
NCCNC(=O)c1ncoc1-c1ccc(Cl)cc1 [5-(4-chlorophenyl)-4-oxazol, N-(2-aminoethyl)-5-(4-chlorophenyl)-4-oxazolecarboxamide] | < 10 | > 100000
NCCNC(=O)c1ncsc1-c1ccccc1 [5-phenyl-4-thiazol, N-(2-aminoethyl)-5-phenyl-4-thiazolecarboxamide] | 20 | 20000
NCCNC(=O)c1ncsc1-c1ccccc1F [5-(2-fluorophenyl)-4-thiazol, N-(2-aminoethyl)-5-(2-fluorophenyl)-4-thiazolecarboxamide] | 40 | > 10000
